Results from US11319299B2, “Substituted carboxamides as inhibitors of WDR5 protein-protein binding” (PROPELLON THERAPEUTICS INC., priority 2016, dated 2022).

Each compound was assayed against WDR5 (Homo sapiens (Human), UniProt P61964) (assay: Surface Plasmon Resonance (SPR) assay, KD and residence time). Conditions: surface plasmon resonance (SPR) assay; read-out: WDR5 binding affinity (KD).
Type: binding

Kd	Compound
1.42 nM	C[C@@H]1CN(c2cc(F)c(-c3cnc(N4CCOC(C)(C)C4)nc3)cc2NC(=O)c2c[nH]c(=O)cc2C(F)(F)F)C[C@H](C)N1C [Example 350, N-[5-[2-(2,2-dimethylmorpholin-4-yl)pyrimidin-5-yl]-4-fluoro-2-[(3R,5S)-3,4,5-trimethylpiperazin-1-yl]phenyl]-6-oxo-4-(trifluoromethyl)-1H-pyridine-3-carboxamide]
3.74 nM	C[C@@H]1CC(N2CC=C(c3cc(NC(=O)c4c[nH]c(=O)cc4C(F)(F)F)c(N4C[C@@H](C)N(C)[C@@H](C)C4)cc3F)CC2)C[C@H](C)O1 (stereo partly drawn) [Example 289, N-[4-fluoro-5-[1-[(2R,6S)-2,6-dimethyloxan-4-yl]-3,6-dihydro-2H-pyridin-4-yl]-2-[(3S,5R)-3,4,5-trimethylpiperazin-1-yl]phenyl]-6-oxo-4-(trifluoromethyl)-1H-pyridine-3-carboxamide]
3.85 nM	C[C@@H]1CN(c2cc(F)c(-c3cncc(Cl)c3)cc2NC(=O)c2c[nH]c(=O)cc2C(F)(F)F)C[C@H](C)N1C [Example 206, N-[5-(5-chloropyridin-3-yl)-4-fluoro-2-[(3R,5S)-3,4,5-trimethylpiperazin-1-yl]phenyl]-6-oxo-4-(trifluoromethyl)-1H-pyridine-3-carboxamide]
9.8 nM	CN(C)[C@@H]1CCN(c2cc(F)c(-c3cnc(N4CCOCC4)nc3)cc2NC(=O)c2cn(C)c(=O)cc2C(F)(F)F)C1 [Example 184, N-[4-fluoro-5-(2-morpholin-4-ylpyrimidin-5-yl)-2-[(3R)-3-(dimethylamino)pyrrolidin-1-yl]phenyl]-1-methyl-6-oxo-4-(trifluoromethyl)pyridine-3-carboxamide]
1.7 nM	C[C@@H]1CN(c2cc(F)c(-c3ccc(F)nc3)cc2NC(=O)c2c[nH]c(=O)cc2C(F)(F)F)C[C@H](C)N1C [Example 257, N-[4-fluoro-5-(6-fluoropyridin-3-yl)-2-[(3R,5S)-3,4,5-trimethylpiperazin-1-yl]phenyl]-6-oxo-4-(trifluoromethyl)-1H-pyridine-3-carboxamide]
18.8 nM	C[C@@H]1CN(c2cc(F)c(-c3cnc(N4CCOCC4)nc3)cc2NC(=O)c2cccc(Cl)c2F)C[C@H](C)N1C [Example 140, 3-chloro-2-fluoro-N-[4-fluoro-5-(2-morpholin-4-ylpyrimidin-5-yl)-2-[(3R,5S)-3,4,5-trimethylpiperazin-1-yl]phenyl]benzamide]
4.76 nM	C[C@@H]1CN(c2cc(F)c(C3=CCN(Cc4ccsc4)CC3)cc2NC(=O)c2c[nH]c(=O)cc2C(F)(F)F)C[C@H](C)N1C [Example 155, N-[4-fluoro-2-[(3R,5S)-3,4,5-trimethylpiperazin-1-yl]-5-[1-(thiophen-3-ylmethyl)-3,6-dihydro-2H-pyridin-4-yl]phenyl]-6-oxo-4-(trifluoromethyl)-1H-pyridine-3-carboxamide]
0.338 nM	COCCOc1ccc(-c2cc(NC(=O)c3c[nH]c(=O)cc3C(F)(F)F)c(N3C[C@@H](C)N(C)[C@@H](C)C3)cc2F)cn1 [Example 84, N-[4-fluoro-5-[6-(2-methoxyethoxy)pyridin-3-yl]-2-[(3R,5S)-3,4,5-trimethylpiperazin-1-yl]phenyl]-6-oxo-4-(trifluoromethyl)-1H-pyridine-3-carboxamide]
137 nM	C[C@@H]1CN(c2cc(F)c(-c3cnc(N4CCOCC4)nc3)cc2NC(=O)c2ccc(F)cc2)C[C@H](C)N1C [Example 107, 4-fluoro-N-[4-fluoro-5-(2-morpholin-4-ylpyrimidin-5-yl)-2-[(3R,5S)-3,4,5-trimethylpiperazin-1-yl]phenyl]benzamide]
2.61 nM	C[C@@H]1CN(c2cc(F)c(C3=CCN(C(=O)CN(C)C)CC3)cc2NC(=O)c2c[nH]c(=O)cc2C(F)(F)F)C[C@H](C)N1C [Example 305, N-[5-[1-[2-(dimethylamino)acetyl]-3,6-dihydro-2H-pyridin-4-yl]-4-fluoro-2-[(3R,5S)-3,4,5-trimethylpiperazin-1-yl]phenyl]-6-oxo-4-(trifluoromethyl)-1H-pyridine-3-carboxamide]
0.499 nM	Cc1cnc(N2CC=C(c3cc(NC(=O)c4c[nH]c(=O)cc4C(F)(F)F)c(N4C[C@@H](C)N(C)[C@@H](C)C4)cc3F)CC2)nc1 [Example 271, N-[4-fluoro-5-[1-(5-methylpyrimidin-2-yl)-3,6-dihydro-2H-pyridin-4-yl]-2-[(3R,5S)-3,4,5-trimethylpiperazin-1-yl]phenyl]-6-oxo-4-(trifluoromethyl)-1H-pyridine-3-carboxamide]

Compound	Kd
C[C@@H]1CN(c2cc(F)c(C3=CC4CCC(C3)N4C(=O)OC(C)(C)C)cc2NC(=O)c2cn(C)c(=O)cc2C(F)(F)F)C[C@H](C)N1C (mixture of isomers) [Example 327, tert-butyl 3-[2-fluoro-5-[[-methyl-6-oxo-4-(trifluoromethyl)pyridine-3-carbonyl]amino]-4-[(3R,5S)-3,4,5-trimethylpiperazin-1-yl]phenyl]-8-azabicyclo[3.2.1]oct-2-ene-8-carboxylate]	123 nM

Same assay, conditions: surface plasmon resonance (SPR); read-out: WDR5 binding affinity (KD)

Compound	Kd
CC1CN(c2ncc(-c3cc(NC(=O)c4ccc(F)cc4C(F)(F)F)c(N4C[C@@H](C)N(C)[C@@H](C)C4)cc3F)cn2)CCO1 (stereo in doubt) [Example 453, 4-fluoro-N-[4-fluoro-5-[2-[(2R)-2-methylmorpholin-4-yl]pyrimidin-5-yl]-2-[(3S,5R)-3,4,5-trimethylpiperazin-1-yl]phenyl]-2-(trifluoromethyl)benzamide]	0.822 nM
C[C@@H]1CN(c2cc(F)c(-c3csc(C(=O)N4CCOCC4)n3)cc2NC(=O)c2c[nH]c(=O)cc2C(F)(F)F)C[C@H](C)N1C [Example 535, N-[4-fluoro-5-[2-(morpholine-4-carbonyl)-1,3-thiazol-4-yl]-2-[(3R,5S)-3,4,5-trimethylpiperazin-1-yl]phenyl]-6-oxo-4-(trifluoromethyl)-1H-pyridine-3-carboxamide]	2.8 nM
CC1CN(c2cc(F)c(-c3ccc(N4C[C@@H](C)O[C@@H](C)C4)nc3)cc2NC(=O)c2ccc(F)cc2C(F)(F)F)CCN1C (stereo in doubt) [Example 423, 4-fluoro-N-[4-fluoro-5-[6-[(2R,6S)-2,6-dimethylmorpholin-4-yl]pyridin-3-yl]-2-[(3R)-3,4-dimethylpiperazin-1-yl]phenyl]-2-(trifluoromethyl)benzamide]	1.93 nM

Results, then the compound that gave them:

Kd	Compound
9.65 nM	C[C@@H]1CN(c2cc(F)c(-c3ccc(C(N)=O)c(F)c3F)cc2NC(=O)c2ccc(F)cc2C(F)(F)F)C[C@H](C)N1C [Example 667, 2,3-difluoro-4-[2-fluoro-5-[[4-fluoro-2-(trifluoromethyl)benzoyl]amino]-4-[(3R,5S)-3,4,5-trimethylpiperazin-1-yl]phenyl]benzamide]
4.58 nM	C[C@@H]1CN(c2cc(F)c(-c3ccc(=O)n(C)c3)cc2NC(=O)c2c[nH]c(=O)cc2C(F)(F)F)C[C@H](C)N1C [Example 568, N-[4-fluoro-5-(1-methyl-6-oxopyridin-3-yl)-2-[(3R,5S)-3,4,5-trimethylpiperazin-1-yl]phenyl]-6-oxo-4-(trifluoromethyl)-1H-pyridine-3-carboxamide]
2.1 nM	C[C@@H]1CN(c2cc(F)c(-c3cnc(N4CCNCC4)nc3)cc2NC(=O)c2ccc(F)cc2C(F)(F)F)C[C@H](C)N1C [Example 546, 4-fluoro-N-[4-fluoro-5-(2-piperazin-1-ylpyrimidin-5-yl)-2-[(3R,5S)-3,4,5-trimethylpiperazin-1-yl]phenyl]-2-(trifluoromethyl)benzamide]
0.475 nM	CC(C)OC(=O)N1CC=C(c2cc(NC(=O)c3c[nH]c(=O)cc3C(F)(F)F)c(N3C[C@@H](C)N(C)[C@@H](C)C3)cc2F)CC1 [Example 602, propan-2-yl 4-[2-fluoro-5-[[6-oxo-4-(trifluoromethyl)-1H-pyridine-3-carbonyl]amino]-4-[(3R,5S)-3,4,5-trimethylpiperazin-1-yl]phenyl]-3,6-dihydro-2H-pyridine-1-carboxylate]
1.03 nM	CC1CN(c2cc(F)c(C3=CCN(C(=O)OC4CC(F)(F)C4)CC3)cc2NC(=O)c2c[nH]c(=O)cc2C(F)F)CCN1C (stereo in doubt) [Example 703, (3,3-difluorocyclobutyl) 4-[5-[[4-(difluoromethyl)-6-oxo-1H-pyridine-3-carbonyl]amino]-2-fluoro-4-[(3R)-3,4-dimethylpiperazin-1-yl]phenyl]-3,6-dihydro-2H-pyridine-1-carboxylate]
0.948 nM	C[C@@H]1CN(c2cc(F)c(-c3cnc(N4CCOCC4)s3)cc2NC(=O)c2c[nH]c(=O)cc2C(F)(F)F)C[C@H](C)N1C [Example 619, N-[4-fluoro-5-(2-morpholin-4-yl-1,3-thiazol-5-yl)-2-[(3R,5S)-3,4,5-trimethylpiperazin-1-yl]phenyl]-6-oxo-4-(trifluoromethyl)-1H-pyridine-3-carboxamide]
1.32 nM	C[C@@H]1CN(c2cc(F)c(C3=CCCN(c4ncccn4)C3)cc2NC(=O)c2c[nH]c(=O)cc2C(F)F)C[C@H](C)N1C [Example 644, 4-(difluoromethyl)-N-[4-fluoro-5-(1-pyrimidin-2-yl-3,6-dihydro-2H-pyridin-5-yl)-2-[(3R,5S)-3,4,5-trimethylpiperazin-1-yl]phenyl]-6-oxo-1H-pyridine-3-carboxamide]
6.75 nM	C[C@@H]1CN(c2cc(F)c(-c3nc(CN4CCOCC4)cs3)cc2NC(=O)c2cn(C)c(=O)cc2C(F)F)C[C@H](C)N1C [Example 741, 4-(difluoromethyl)-N-[4-fluoro-5-[4-(morpholin-4-ylmethyl)-1,3-thiazol-2-yl]-2-[(3R,5S)-3,4,5-trimethylpiperazin-1-yl]phenyl]-1-methyl-6-oxopyridine-3-carboxamide]
4.85 nM	C[C@@H]1CN(c2cc(F)c(-c3ccc(C(=O)NC4CCCCC4(C)C)c(F)c3)cc2NC(=O)c2c[nH]c(=O)cc2C(F)(F)F)C[C@H](C)N1C (stereo partly drawn) [Example 747, N-[5-[4-[(2,2-dimethylcyclohexyl)carbamoyl]-3-fluorophenyl]-4-fluoro-2-[(3R,5S)-3,4,5-trimethylpiperazin-1-yl]phenyl]-6-oxo-4-(trifluoromethyl)-1H-pyridine-3-carboxamide]
